Data reported in PubChem BioAssay (NCI).
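Cultured in 96-well plates, cells were exposed to test compound for 48 hours across five concentrations. TGI denotes the concentration required for complete inhibition of growth.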

Legend:
Experiment in all cases: growth of human tumour cells (NCI), 48 h
NCI-H226 lung = tested on: NCI-H226 lung
EKVX NSCLC = tested on: EKVX NSCLC
OVCAR-3 ovarian = tested on: OVCAR-3 ovarian
K-562 leukemia = tested on: K-562 leukemia
SNB-75 CNS = tested on: SNB-75 CNS
SF-295 CNS = tested on: SF-295 CNS
HCT-15 colon = tested on: HCT-15 colon
HCT-116 colon = tested on: HCT-116 colon
MDA-N = tested on: MDA-N
SF-268 CNS = tested on: SF-268 CNS
MALME-3M melanoma = tested on: MALME-3M melanoma
HOP-62 NSCLC = tested on: HOP-62 NSCLC
COLO 205 colon = tested on: COLO 205 colon
U251 CNS = tested on: U251 CNS
NCI-H522 lung = tested on: NCI-H522 lung
IGROV1 ovarian = tested on: IGROV1 ovarian
SK-MEL-2 melanoma = tested on: SK-MEL-2 melanoma
T-47D breast = tested on: T-47D breast
NCI-H460 lung = tested on: NCI-H460 lung
HCC-2998 colon = tested on: HCC-2998 colon

## NC(N)=NS(=O)(=O)c1ccc(Nc2c3ccccc3nc3ccc(C(=O)Nc4ccc(S(N)(=O)=O)cc4)cc23)cc1
NCI-H226 lung
  TGI: > 100 µM
EKVX NSCLC
  TGI: > 100 µM
OVCAR-3 ovarian
  TGI: > 100 µM
K-562 leukemia
  TGI: > 100 µM
SNB-75 CNS
  TGI: > 100 µM
SF-295 CNS
  TGI: > 100 µM
HCT-15 colon
  TGI: > 100 µM
HCT-116 colon
  TGI: > 100 µM
MDA-N
  TGI: > 100 µM
SF-268 CNS
  TGI: > 100 µM
MALME-3M melanoma
  TGI: > 100 µM
HOP-62 NSCLC
  TGI: > 100 µM
COLO 205 colon
  TGI: > 100 µM
U251 CNS
  TGI: > 100 µM
NCI-H522 lung
  TGI: > 100 µM
IGROV1 ovarian
  TGI: > 100 µM
SK-MEL-2 melanoma
  TGI: > 100 µM
T-47D breast
  TGI: > 100 µM
NCI-H460 lung
  TGI: > 100 µM
HCC-2998 colon
  TGI: > 100 µM

## C/C=C1/CN2CCC34C5=CC(=O)C(c6cc7c(cc6OC)N(C)C6=C(C(=O)OC)CC8(CC)CCCN9CCC67C98)=CC5=NC23CCC1C4C(=O)OC (stereo not given)
NCI-H226 lung
  TGI: 39 µM
EKVX NSCLC
  TGI: 28.1 µM
OVCAR-3 ovarian
  TGI: 27.4 µM
K-562 leukemia
  TGI: 15.9 µM
SNB-75 CNS
  TGI: 21.6 µM
SF-295 CNS
  TGI: 31.6 µM
HCT-15 colon
  TGI: 28.3 µM
HCT-116 colon
  TGI: 23.1 µM
MDA-N
  TGI: 27 µM
SF-268 CNS
  TGI: 33.1 µM
MALME-3M melanoma
  TGI: 28.6 µM
HOP-62 NSCLC
  TGI: 31.5 µM
COLO 205 colon
  TGI: 22.9 µM
U251 CNS
  TGI: 28.6 µM
NCI-H522 lung
  TGI: 23.7 µM
IGROV1 ovarian
  TGI: 31.9 µM
SK-MEL-2 melanoma
  TGI: 30.6 µM
T-47D breast
  TGI: 29 µM
NCI-H460 lung
  TGI: 30.1 µM
HCC-2998 colon
  TGI: 29.5 µM
